Test system: GRMD plasma proteins
Format: in vivo, dog
Settings: EDG-5506 treatment to GRMD baseline; Increased in GRMD

## O=c1ccc(-c2cnc(OCC(F)(F)F)nc2)nn1Cc1cncc(F)c1 [EDG-5506]
  Change from GRMD Baseline (fraction): Annexin A6 (ANXA6): -0.2759 fraction
  Change from GRMD Baseline (fraction): Anterior gradient protein 2 homolog (AGR2): -0.0848 fraction
  Change from GRMD Baseline (fraction): Apolipoprotein E (APOE): -0.1554 fraction
  Change from GRMD Baseline (fraction): Apolipoprotein E (isoform E3) (APOE): 0.0588 fraction
  Change from GRMD Baseline (fraction): Apolipoprotein E (isoform E4) (APOE): -0.0389 fraction
  Change from GRMD Baseline (fraction): Apoptosis regulator Bcl-2 (BCL2): -0.1414 fraction
  Change from GRMD Baseline (fraction): Artemin (ARTN): -0.0443 fraction
  Change from GRMD Baseline (fraction): Arylsulfatase B (ARSB): -0.0585 fraction
  Change from GRMD Baseline (fraction): B-cell receptor CD22 (CD22): -0.1198 fraction
  Change from GRMD Baseline (fraction): Baculoviral IAP repeat-containing protein 5 (BIRC5): -0.1027 fraction
  Change from GRMD Baseline (fraction): Basal Cell Adhesion Molecule (BCAM): -0.0829 fraction
  Change from GRMD Baseline (fraction): Bcl-2-like protein 1 (BCL2L1): -0.0786 fraction
  Change from GRMD Baseline (fraction): Bone sialoprotein 2 (IBSP): -0.0968 fraction
  Change from GRMD Baseline (fraction): C-C motif chemokine 13 (CCL13): -0.0908 fraction
  Change from GRMD Baseline (fraction): C-C motif chemokine 23 (CCL23): -0.0571 fraction
  Change from GRMD Baseline (fraction): CCAAT/enhancer-binding protein beta (CEBPB): -0.0589 fraction
  Change from GRMD Baseline (fraction): CD59 glycoprotein (CD59): -0.0497 fraction
  Change from GRMD Baseline (fraction): Calcineurin (PPP3CA PPP3R1): -0.2961 fraction
  Change from GRMD Baseline (fraction): Calcineurin subunit B type 1 (PPP3R1): -0.1572 fraction
  Change from GRMD Baseline (fraction): Calcium/calmodulin-dependent protein kinase type 1 (CAMK1): -0.1284 fraction
  Change from GRMD Baseline (fraction): Calcium/calmodulin-dependent protein kinase type 1D (CAMK1D): -0.0749 fraction
  Change from GRMD Baseline (fraction): Calcium/calmodulin-dependent protein kinase type II subunit alpha (CAMK2A): -0.4545 fraction
  Change from GRMD Baseline (fraction): Calcium/calmodulin-dependent protein kinase type II subunit beta (CAMK2B): -0.4519 fraction
  Change from GRMD Baseline (fraction): Calcium/calmodulin-dependent protein kinase type II subunit delta (CAMK2D): -0.3407 fraction
  Change from GRMD Baseline (fraction): Calpain I (CAPN1 CAPNS1): -0.011 fraction
  Change from GRMD Baseline (fraction): Calpastatin (CAST): -0.036 fraction
  Change from GRMD Baseline (fraction): Carbonic anhydrase 3 (CA3): -0.4126 fraction
  Change from GRMD Baseline (fraction): Cardiotrophin-1 (CTF1): -0.0756 fraction
  Change from GRMD Baseline (fraction): Catalase (CAT): -0.1548 fraction
  Change from GRMD Baseline (fraction): Choline/ethanolamine kinase (CHKB): -0.0698 fraction
  Change from GRMD Baseline (fraction): Chymase (CMA1): -0.0479 fraction
  Change from GRMD Baseline (fraction): Clusterin (CLU): -0.1079 fraction
  Change from GRMD Baseline (fraction): Complement component C6 (C6): 0.1732 fraction
  Change from GRMD Baseline (fraction): Complement component C8 (C8A C8B C8G): -0.1065 fraction
  Change from GRMD Baseline (fraction): Complement factor D (CFD): -0.1183 fraction
  Change from GRMD Baseline (fraction): Creatine kinase M-type (CKM): -0.3439 fraction
  Change from GRMD Baseline (fraction): Creatine kinase M-type:Creatine kinase B-type heterodimer (CKB CKM): -0.3657 fraction
  Change from GRMD Baseline (fraction): Cyclin-dependent kinase inhibitor 1B (CDKN1B): -0.1686 fraction
  Change from GRMD Baseline (fraction): Cysteine and glycine-rich protein 3 (CSRP3): -0.0108 fraction
  Change from GRMD Baseline (fraction): Cytochrome c (CYCS): -0.561 fraction
  Change from GRMD Baseline (fraction): DNA repair protein RAD51 homolog 1 (RAD51): -0.1205 fraction
  Change from GRMD Baseline (fraction): Desmoglein-1 (DSG1): -0.0821 fraction
  Change from GRMD Baseline (fraction): Dickkopf-like protein 1 (DKKL1): -0.0601 fraction
  Change from GRMD Baseline (fraction): Down syndrome cell adhesion molecule (DSCAM): -0.0864 fraction
  Change from GRMD Baseline (fraction): Dual specificity mitogen-activated protein kinase kinase 1 (MAP2K1): -0.3654 fraction
  Change from GRMD Baseline (fraction): Dual specificity protein phosphatase 3 (DUSP3): -0.3709 fraction
  Change from GRMD Baseline (fraction): Dynein light chain roadblock-type 1 (DYNLRB1): -0.5348 fraction
  Change from GRMD Baseline (fraction): Ectonucleoside triphosphate diphosphohydrolase 1 (ENTPD1): -0.1101 fraction
  Change from GRMD Baseline (fraction): Endothelin-converting enzyme 1 (ECE1): -0.1039 fraction
  Change from GRMD Baseline (fraction): Ephrin type-A receptor 1 (EPHA1): -0.0912 fraction
  Change from GRMD Baseline (fraction): Ephrin type-B receptor 6 (EPHB6): 0.1966 fraction
  Change from GRMD Baseline (fraction): Epidermal growth factor (EGF): -0.0588 fraction
  Change from GRMD Baseline (fraction): Epidermal growth factor receptor variant III (EGFR): -0.052 fraction
  Change from GRMD Baseline (fraction): Erythropoietin receptor (EPOR): -0.0772 fraction
  Change from GRMD Baseline (fraction): Estrogen receptor (ESR1): -0.0792 fraction
  Change from GRMD Baseline (fraction): Eukaryotic translation initiation factor 4H (EIF4H): -0.4334 fraction
  Change from GRMD Baseline (fraction): Eukaryotic translation initiation factor 4 gamma 2 (EIF4G2): -0.3268 fraction
  Change from GRMD Baseline (fraction): Extracellular matrix protein 1 (ECM1): -0.1471 fraction
  Change from GRMD Baseline (fraction): Fibroblast growth factor 8 isoform B (FGF8): -0.0878 fraction
  Change from GRMD Baseline (fraction): Fibroblast growth factor 9 (FGF9): -0.0286 fraction
